Measurements from patent US6303596A, “Use of taurolidine for treatment of leukemias” (priority 2000, dated 2001).

Tests used:
[1] = system: ECV304 (endothelial cells); experiment: growth rate (proliferation) after taurolidine treatment, ECV304; type: cell-based, human; conditions: ECV304, 50 and 100 μg/ml taurolidine
Description: (§1) FIGS. 10A and 10B depict cell viability and growth rates for ECV304 cell line following taurolidine treatment, in terms of % trypan blue negative cells and % cell number, respectively. Cells were treated with various concentrations of taurolidine for 4 hours in AIM-V+0.01% BCS. After aliquots were collected for LDH assay, the remainder of the culture was rinsed in HBSS and resuspended in RPMI+10% BCS without taurolidine. Counts of trypan blue-negative cells (FIG. 10A), and total cell number (FIG. 10B), were recorded daily thereafter (with the measurement at Day 1 being made immediately after the 4 hour taurolidine treatment). Conditions were: no treatment (open circles); 25 μg/ml taurolidine (closed circles); 50 μg/ml taurolidine (open squares); 100 μg/ml taurolidine (closed squares); and vehicle alone (closed triangles). Doubling times were determined under each condition, and expressed as a percentage of the rate of doubling of untreated cells. These values are located to the right of the growth curves in (FIG. 10B). […]
(§2) HL-60 cells treated with 50 μl taurolidine. In these samples, LDH present in the culture medium was 8.3±2.3% of that released by completely lysed cells, compared with 2.3±0.8% measured in control cultures. […] After 4 hour treatment, cells were rinsed and returned to growth medium and monitored for viability and growth over the following 3 days. […]

ECV304 = experiment: subcellular-sized events by flow cytometry, ECV304; type: cell-based, human; conditions: ECV304, after taurolidine treatment
Description: (§3) Less than 0.1% of ECV304 or GM5387 cells were TUNEL-positive 6 hours after treatment with taurolidine or anisomycin (Table VIII). Therefore, neither of these agents induce rapid DNA fragmentation in these cell types. However, there was approximately a 70% increase in the number of subcellular-sized events recorded by flow cytometry after taurolidine treatment of these cells, indicating some effect of taurolidine on cell integrity. These cell fragments were not stained by propidium iodide, consistent with them being apoptotic bodies.

all other cell lines = experiment: LDH release (cell membrane integrity), all other cell lines; type: cell-based, human; conditions: all samples from all other cell lines (n=3); 240 min
Description: (§4) In these experiments, integrity of cell membranes following taurolidine treatment was assessed by exclusion of trypan blue and by measuring the release of LDH in MM6, K-562, HL-60, and REH cells. Since BCS contains significant amounts of LDH, these experiments were conducted on cells cultured in AIM-V+0.01% BCS. Four hour treatment of cells was conducted in AIM-V containing 0.01% BCS in order to allow subsequent LDH assay without interference from BCS (which occurs in when normal culture medium, containing 10% BCS, is used). Thus, MM6 cells (5×10^5 cells/ml) were treated with taurolidine for four hours in AIM-V+0.01% BCS, after which an aliquot of the cell suspension was removed for measurement of LDH release. A parallel aliquot of cells was lysed by three cycles of freeze/thaw and the quantity of LDH released was taken to be 100%. Remaining cells were rinsed in HBSS and resuspended in growth medium for measurement of growth rates.
as §2

[2] = system: other leukemia-derived cell lines; experiment: growth after taurolidine treatment, other leukemia-derived cell lines; type: cell-based, human; conditions: 50 μg/ml or greater
Description: as §4, §2

K-562 = experiment: LDH release (cell membrane integrity), K-562; type: cell-based; conditions: Homo sapiens, K562, 4 h, read-out: LDH (% of total)
Description: as §1, with “6A” for “10A”, “6B” for “10B”, “K562” for “ECV304”, “6A),” for “10A),”, “6B),” for “10B),”, “cells.” for “cells. These values are located to the right of the growth curves in (FIG. 10B).”
In these experiments, integrity of cell membranes following taurolidine treatment was assessed by exclusion of trypan blue and by measuring the release of LDH in MM6, K-562, HL-60, and REH cells. […] A parallel aliquot of cells was lysed by three cycles of freeze/thaw and the quantity of LDH released was taken to be 100%. […]
^a LDH was measured immediately after four hour taurolidine treatment.

Monocytes = conditions: 24-hour taurolidine treatment; cited from earlier work
[3] = system: ECV304 (endothelial cells); experiment: trypan blue exclusion, ECV304; type: cell-based, human; conditions: ECV304, after taurolidine treatment
Description: as §1, §2

GM5387 = experiment: subcellular-sized events by flow cytometry, GM5387; type: cell-based, human; conditions: GM5387, after taurolidine treatment
Description: as §3

[4] = system: peripheral blood monocytes; experiment: cell size by flow cytometry (FSC), peripheral blood monocytes; type: cell-based, human; conditions: taurolidine 6 h
Description: FIG. 12A, FIG. 12B, FIG. 12C, and FIG. 12D are flow cytometric analyses depicting changes in cell morphology following taurolidine treatment. MM6 and PBMC were treated for three hours with taurolidine, and then treated and untreated control cells were processed for flow cytometry. Monocytes in PBMC samples were identified by staining with FITC-conjugated anti-CD14, and lymphocytes by FITC-conjugated anti-CD3 and PE-conjugated anti-CD19. FIG. 12A represents untreated MM6 cells; FIG. 12B represents MM6 cells treated with 50 μg/ml taurolidine; FIG. 12C represents untreated PBMC; and FIG. 12D represents PBMC treated with 75 μg/ml taurolidine. M=monocytes; L=lymphocytes.
A Becton-Dickinson FACSCalibur instrument was used for flow cytometric analysis of cells. Assessment of cell diameter (forward scatter; FCS) and granularity (side scatter; SSC).was carried out on unfixed cells. Discrimination between lymphocytes and monocytes was made possible by their characteristic differences in FSC and SSC, and confirmed by staining monocytes with FITC-labeled anti-CD14 antibodies and lymphocytes with a combination of FITC-conjugated anti-CD3 and PE-conjugated anti-CD19. After incubation with taurolidine (with or without concomitant LPS treatment), cells were rinsed twice in phosphate-buffered saline containing 0.1% bovine serum albumin (PBSA) and 1×10^6 cells were resuspended in 0.1 ml PBSA. […]

O=S1(=O)CCN(CN2CCS(=O)(=O)NC2)CN1 [taurolidine, 4,4'-methylenebis(perhydro-1,2,4-thiadiazin 1,1-dioxide)]
proliferation after treatment [1]: inhibited proliferation
increase in the number of subcellular-sized events (ECV304): ~70%
LDH levels, % of lysed cell samples (all other cell lines): ≤ 7%
growth after taurolidine treatment [2]: inhibition of growth
cytotoxicity at 50 µg/mL (K-562; K-562, 50 μg/ml): 6%
cytotoxicity at 100 µg/mL (K-562; K-562, 100 μg/ml): 8%
LDH release by monocytes (Monocytes): no increase in LDH release
trypan blue staining during 4 day growth [3]: did not demonstrate a significant increase in trypan blue staining
trypan blue staining during 4 day growth ([3]; listed as Taurolidine): cells remained trypan blue negative
increase in the number of subcellular-sized events (GM5387): ~70%
decrease in FSC [4]: approximately 30%
